Measured values published in publication PMC6747525, “Chk1 Inhibitor MK-8776 Restores the Sensitivity of Chemotherapeutics in P-glycoprotein Overexpressing Cancer Cells” (International Journal of Molecular Sciences, 2019).

Assays:
[1] = biological target: T1, P-glycoprotein (P-gp) (Homo sapiens, UniProt P08183)
T1 construct: gene ABCB1

[2] = biological target: T1, P-glycoprotein (P-gp); assay: biochemical

T1 sequence (P08183 whole entry): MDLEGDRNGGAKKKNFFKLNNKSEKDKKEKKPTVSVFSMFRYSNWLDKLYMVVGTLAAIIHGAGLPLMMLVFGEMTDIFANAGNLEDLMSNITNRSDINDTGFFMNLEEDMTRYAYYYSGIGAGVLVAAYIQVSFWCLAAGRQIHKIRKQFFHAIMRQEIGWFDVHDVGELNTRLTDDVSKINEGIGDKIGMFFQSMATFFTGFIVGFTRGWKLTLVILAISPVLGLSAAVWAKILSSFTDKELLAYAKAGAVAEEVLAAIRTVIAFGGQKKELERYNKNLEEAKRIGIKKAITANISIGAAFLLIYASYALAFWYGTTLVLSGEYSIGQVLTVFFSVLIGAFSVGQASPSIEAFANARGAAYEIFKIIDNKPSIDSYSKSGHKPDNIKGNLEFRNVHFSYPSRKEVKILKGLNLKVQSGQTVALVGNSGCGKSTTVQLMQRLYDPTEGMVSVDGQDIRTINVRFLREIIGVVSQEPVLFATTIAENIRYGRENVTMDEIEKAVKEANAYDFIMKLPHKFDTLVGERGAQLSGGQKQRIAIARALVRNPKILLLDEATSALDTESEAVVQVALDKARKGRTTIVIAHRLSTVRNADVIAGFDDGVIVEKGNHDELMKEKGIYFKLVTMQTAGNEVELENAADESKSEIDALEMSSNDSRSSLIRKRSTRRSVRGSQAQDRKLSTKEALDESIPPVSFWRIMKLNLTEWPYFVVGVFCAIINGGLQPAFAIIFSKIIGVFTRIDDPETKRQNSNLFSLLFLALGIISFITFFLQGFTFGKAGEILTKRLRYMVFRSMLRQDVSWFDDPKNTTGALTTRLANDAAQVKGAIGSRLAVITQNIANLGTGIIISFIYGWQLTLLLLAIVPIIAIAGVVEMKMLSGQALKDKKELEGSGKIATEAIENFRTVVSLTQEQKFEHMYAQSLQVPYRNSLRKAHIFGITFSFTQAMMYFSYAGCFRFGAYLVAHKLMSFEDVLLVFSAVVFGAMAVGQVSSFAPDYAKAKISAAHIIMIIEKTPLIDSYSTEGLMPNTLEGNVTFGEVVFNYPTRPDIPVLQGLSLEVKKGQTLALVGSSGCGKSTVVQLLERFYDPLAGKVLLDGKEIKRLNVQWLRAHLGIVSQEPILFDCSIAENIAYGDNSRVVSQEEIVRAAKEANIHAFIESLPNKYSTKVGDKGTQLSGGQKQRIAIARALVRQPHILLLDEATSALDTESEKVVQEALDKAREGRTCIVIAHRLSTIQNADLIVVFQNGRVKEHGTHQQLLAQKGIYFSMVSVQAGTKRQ

EC50 [2] [µM]	SMILES	[3H]-paclitaxel accumulation and efflux in P-gp-overexpressing KB-C2 versus pare [1]
	CC(=O)O[C@H]1C(=O)[C@@]2(C)[C@H]([C@H](OC(=O)c3ccccc3)[C@]3(O)C[C@H](OC(=O)[C@H](O)[C@@H](NC(=O)c4ccccc4)c4ccccc4)C(C)=C1C3(C)C)[C@]1(OC(C)=O)CO[C@@H]1C[C@@H]2O [paclitaxel]	[^3H]-paclitaxel efflux increased significantly compared with that in their parental KB-3-1 cells
3.8	Cn1cc(-c2cnn3c(N)c(Br)c([C@@H]4CCCNC4)nc23)cn1 [MK-8776]	
